Assay results reported in article PMC4841536, “Characterization of the Anti-HCV Activities of the New Cyclophilin Inhibitor STG-175” (PLoS ONE, 2016).
Read-outs that look alike come from different tables or passages of the source.

What was measured:
[1] = tested on: HBV in mixed PBMCs, NTCP-Huh7 and Huh7.5.1 cells; assay: Dual/triple co-infection in cell co-cultures, HBV readout; format: cell-based, hepatitis B virus
[2] = tested on: HCV GT4a subgenomic replicon ED43/SG-Feo; assay: Luciferase reporter replicon antiviral assay, GT4a; format: cell-based; conditions: Hepatitis C virus
Experimental: (§1) The anti-HCV activity of STG-175 was conducted using a panel of luciferase reporter replicon cell lines including GT1a, GT1b, GT2a, GT3a and GT4a as we described previously. The GT1a subgenomic renilla luciferase reporter replicon H77 RLucP (7) was supplied by Dr. Delaney. The GT1b subgenomic firefly luciferase reporter replicon pFK-I389/NS3-3’ [29] was supplied by Dr. Bartenschlager. The GT1B subgenomic NS3, NS5A and NS5B mutants were created via homologous recombination using the In-Fusion HD Cloning kit (Clontech) as we described previously. The GT2a genomic luciferase reporter replicon Luc-Neo-JFH-1 was generated as previously. The plasmid pFK-Luc-JFH1 was supplied from Drs. […] The CellTiter-Fluor™ Cell Viability Assay is a non-lytic fluorescence assay, which measures the number of live cells. […] Luciferase activity was determined using the Luciferase Assay System (Promega) in a Berthold luminometer. […] Viable cells continuously convert resazurin to resorufin, increasing the overall fluorescence and color of the media surrounding cells.
(§2) Fig 2 Anti-HCV activities of STG-175 among GTs. […] Luciferase activity was determined using the Luciferase Assay System in a Berthold luminometer. […] Data are expressed as mean of relative light units and calculated EC50s are presented. […]

[3] = tested on: IL-2 promoter activation in Jurkat T-cell line; assay: In vitro assay for immunosuppression: IL-2 promoter activation in engineered Jurkat T-cell line (betagalactosidase); format: cell-based
Experimental: IL-2 promoter activation upon T-cell stimulation was determined using an engineered Jurkat T-cell line, which expresses betagalactosidase when exposed to chemical non-specific factors like […] (PMA) and phytohematogglutinin (PHA) as described previously. DMSO or STG-175 were added together with PMA (10 ng/mL) to 1 million of Jurkat cells (triplicates). Betagalactosidase activity in cell lysates was quantified by fluorescence (460 nm) after 24 h.
Fig 1 Anti-PPIase and immunosuppressive activities of STG-175. A. Structures of cyclophilin inhibitors. Inhibition of CypA (B) and CypD (C) isomerase activities were assessed using the α-chymotrypsin-coupled assay. Each test compound was prepared at 10 concentrations (0.05–1000 nM). All solutions were equilibrated, and reactions conducted at 5°C. Reactions were initiated by mixing 95 μL reaction mix with 5 μL of the peptide to be cleaved and measuring OD405 nm at 6-sec intervals for 6 min. Data were fitted with Graphpad Prism 6.0 to obtain first-order rate constants. Enzyme catalyzed rate constants were calculated by subtracting the rate constant from uncatalyzed reactions (no CypA/D), and catalytic rate constants plotted as a function of inhibitor concentration to obtain IC50s. […] D. IL-2 promoter activation upon T-cell stimulation was determined using an engineered Jurkat T-cell line, which expresses betagalactosidase. Jurkat cells (1 million) were activated with PMA (10 ng/mL). […] The Y-axis values are expressed as percentage of activity. Data expressed as EC50s are representative of two independent experiments.
The formation of this trimolecular complex inhibits T cell proliferation by blocking the signaling pathway leading to IL-2 production upon T-cell stimulation. The immunosuppressive activity of STG-175 was evaluated by inhibition of the IL-2 production in Jurkat cells.

[4] = alamarBlue cytotoxicity (CC50), GT1b replicon cell line; conditions: human
Experimental: as §1, §2

CC=CCC(C)C(O)C1C(=O)NC(CC)C(=O)N(C)C(CSCCCCO)C(=O)N(C)C(CC(C)(C)O)C(=O)NC(C(C)C)C(=O)N(C)C(CC(C)C)C(=O)NC(C)C(=O)NC(C)C(=O)N(C)C(CC(C)C)C(=O)N(C)C(CC(C)C)C(=O)N(C)C(C(C)C)C(=O)N1C (stereo not shown) [STG-175]
HBV infection in co-infection ([1]; STG-175 added together with virus): greatly attenuated | pre-established HBV infection in co-infection ([1]; added 3 days post-infection and then every 3 days): decreased the viral expansion | EC50 ([2]; 72 h, read-out: EC50 GT4a): 15.2 nM | EC50 ([2]; read-out: EC50 GT4a (Fig 2D)): 15.2 nM | IC50 ([3]; Homo sapiens, Jurkat, 24 h, read-out: IC50, inhibition of IL-2 production (immunosuppressive activity)): 159 nM | times less immunosuppressive activity than CsA ([3]; Jurkat IL-2): approximately 1000 times | CC50 at 72 h [4]: > 10000 nM
